From US10183913B2, “Pyrazole compound” (Sumitomo Dainippon Pharma Co., Ltd., priority 2010, dated 2019)
Read-outs that look alike come from different tables or passages of the source.

Experiments:
[1] = target: human serotonin transporter (h-SERT) (Homo sapiens (Human), UniProt P31645); assay: [3H] citalopram binding assay to evaluate human serotonin reuptake inhibitory action (h-SERT binding assay)
Experimental: Citalopram Binding Assay to Evaluate Human Serotonin Reuptake Inhibitory Action
(§1) Preparation of the Cells and Membrane Preparations
In the experiment, human serotonin transporter (h-SERT) was expressed in CHO cells (h-SERT/CHO). The cells were incubated with F12 containing 10% FCS, 500 μg/mL Geneticin and 100 U/mL penicillin—100 μg/mL streptmycin (all manufactured by Sigma Aldrich) in an incubator containing 5% CO2; detached and collected using a SERT buffer [50 mmol/L Tris-HCl comprising 120 mmol/L NaCl and 5 mmol/L KCl (pH=7.4)]; homogenized with a homogenizer manufactured by Teflon (trademark); and then centrifuged (50,000×g, 30 min, 4° C.). The precipitate was suspended again in the appropriate amount of SERT buffer (to give a membrane preparation), and stored at −80° C. until used. The amount of protein in the membrane preparation was assayed by Dye Reagent Concentrate (manufactured by BIO-RAD) using bovine serum albumin (manufactured by Sigma Aldrich) as a standard.
1-2. h-SERT Binding Assay
The [^3H] citalopram binding was measured according to the method disclosed in Owens M. J. et al., J. Pharm. […] The solution was reacted at room temperature for 60 minutes, and then quickly suction-filtered under reduced pressure through a glass fiber filter coated with 0.05% aq. polyethyleneimine. The glass fiber filter was washed twice with […] of the SERT buffer, placed in a plastic vial containing 4 mL of liquid scintillator (ACS-II, manufactured by Amersham) or Ecoscint A (manufactured by National Diagnostics), and the remaining radioactivity on the filter paper was assayed with a liquid scintillation counter.

[2] = target: T1, human serotonin 2C receptor (h-5-HT2C) (Homo sapiens (Human), UniProt P28335); assay: [3H] mesulergine binding assay to evaluate affinity for human 5-HT2C receptor; conditions: h-5-HT2C/CHO membrane preparation, read-out: Test Ex. 2: 5-HT2C receptor binding inhibition constant Ki
T1 sequence (P28335 whole entry, looked up): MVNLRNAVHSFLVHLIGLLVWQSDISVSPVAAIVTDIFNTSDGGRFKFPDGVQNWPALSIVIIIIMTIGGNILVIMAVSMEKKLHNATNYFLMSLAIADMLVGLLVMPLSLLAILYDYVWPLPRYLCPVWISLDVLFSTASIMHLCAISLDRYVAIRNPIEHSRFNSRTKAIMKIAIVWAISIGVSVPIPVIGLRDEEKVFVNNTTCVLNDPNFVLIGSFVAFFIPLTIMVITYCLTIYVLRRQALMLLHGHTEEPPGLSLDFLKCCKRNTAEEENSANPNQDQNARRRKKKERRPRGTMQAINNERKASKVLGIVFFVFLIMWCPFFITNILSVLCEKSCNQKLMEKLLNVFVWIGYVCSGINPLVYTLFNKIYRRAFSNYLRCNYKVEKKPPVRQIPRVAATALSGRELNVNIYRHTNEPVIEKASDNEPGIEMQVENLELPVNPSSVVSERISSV
Experimental: Mesulergine Binding Assay to Evaluate Affinity for Human 5-HT2C Receptor
as §1
In the experiment, human serotonin 2C receptor (h-5-HT2C) was expressed in CHO cells (h-5-HT2C/CHO). The cells were incubated with UltraCHO Lipuid (trademark) (manufactured by BioWhitakker) containing 1% FBS, 400 μg/mL Geneticin, 100 U/mL penicillin—100 μg/mL streptomycin (all manufactured by Sigma Aldrich) and 250 μg/mL Zeosin (manufactured by InvivoGen) in an incubator containing 5% CO2; detached and collected using 50 mmol/L Tris-HCl (pH=7.4); homogenized with a homogenizer manufactured by Teflon (trademark); and then centrifuged (48,000×g, 25 min, 4° C.). The precipitate was suspended again in the appropriate amount of 50 mmol/L Tris-HCl (to give a membrane preparation), and stored at −80° C. until used. The amount of protein in the membrane preparation was assayed by Dye Reagent Concentrate (manufactured by BIO-RAD) using bovine serum albumin (manufactured by Sigma Aldrich) as a standard.
2-2. 5-HT2C Receptor Binding Assay
A solution of 200 μL in total was prepared by mixing 50 μL of [^3H] mesulergine (manufactured by GE Healthcare) diluted with 50 mmol/L Tris-HCl (pH=7.4) (final concentration: about 2 nmol/L), 149 μL of the h-5-HT2C/CHO membrane preparation (protein amount: 20 μg/well), and 1 μL of the test drug dissolved in dimethylsulfoxide. The solution was reacted at 37° C. for 30 minutes, and then quickly suction-filtered under reduced pressure through a glass fiber filter coated with 1% aq. bovine serum albumin. The glass fiber filter was washed twice with 250 μL of 50 mmol/L Tris-HCl (pH=7.4), placed in a plastic vial containing 4 mL of liquid scintillator (ACS-II, manufactured by Amersham) or Ecoscint A (manufactured by National Diagnostics), and the remaining radioactivity on the filter paper was assayed with a liquid scintillation counter. The non-specific binding of [^3H] mesulergine was defined as a binding amount in the presence of 10 μmol/L SB206553 (manufactured by Sigma Aldrich). The IC50 value was calculated according to Hill analysis, and the binding inhibition constant (Ki) was calculated according to the following formula: Binding inhibition constant (Ki)=IC50/(1+S/Kd) wherein S is a concentration of the added [^3H] mesulergine, and Kd is a binding dissociation constant of [^3H] mesulergine which was calculated from a saturated binding assay using the same cell membrane.

[3] = target: T1, human serotonin 2C receptor (h-5-HT2C); assay: 5-HT2C receptor agonistic action assay (FLIPR Calcium 4 Assay kit, h-5-HT2C/CHO cells); format: cell-based
Experimental: 3-1. The Cells and Inoculation Thereof
In the experiment, human serotonin 2C receptor (h-5-HT2C) was expressed in CHO cells (h-5-HT2C/CHO). The cells were incubated with UltraCHO Lipuid (trademark) (manufactured by BioWhitakker) containing 1% FBS, 400 μg/mL Geneticin, 100 U/mL penicillin—100 μg/mL streptomycin (all manufactured by Sigma Aldrich) and 250 μg/mL Zeosin (manufactured by InvivoGen) in an incubator containing 5% CO2. On the day before using the cells, they were detached and collected using 250 μg/mL Trypsin solution (manufactured by Nacalai Tesque), then inoculated in a 96 well flat clear bottom black polystyrene TC-treated microplates (manufactured by Corning) at 40000 cells/well/60 μL in an incubator containing 5% CO2 for 16 hours to 24 hours.
3-2. 5-HT2C Receptor Agonistic Action Assay
The 5-HT2C receptor agonistic action was evaluated with FLIPR Calcium 4 Assay kit (manufactured by Molecular Devices). In specific, to the cells inoculated in the plate were added Component A of FLIPR Calcium 4 Assay kit dissolved in 100 mL of HHBP buffer (1×Hanks buffer, 20 mmol/L HEPES, both manufactured by Gibco) at an amount of 40 μL/well, and the cells were incubated in an incubator containing 5% CO2 for 1 hour. Then, the cells were set in FLIPR TETRA (trademark) (manufactured by Molecular Devices), to the cells was added the test material diluted with HHBP buffer, 2.5 mmol/L Probenecid (manufactured by Sigma) (concentration after dilution: 10 μmol/L) at an amount of 20 μL/well, and the fluorescence was measured. Then, in order to evaluate the antagonistic action of the test material, 20 μL/well of 5-HT solution (manufactured by Sigma, final concentration: 0.1 nmol/L) was further added to the cells, and the fluorescence was measured.
The 5-HT2C receptor agonistic action of each test material was calculated as a rate of fluorescence enhancement wherein 100% was defined as a value when the cells were given 10 μmol/L 5-HT. Furthermore, the 5-HT2C receptor inverse agonistic action was calculated as a rate of fluorescence decay wherein −100% was defined as a value when the cells were given 10 μmol/L SB206553 (manufactured by Sigma Aldrich). A lower value of the 5-HT2C receptor agonistic action of the test material means that the material has a higher antagonistic action. In particular, when the value of the 5-HT2C receptor agonistic action of the test material is below 0%, the material has an inverse agonistic action for 5-HT2C receptor.

[4] = [3H] citalopram binding, read-out: Test Ex. 1: h-SERT binding inhibition constant Ki
[5] = test material 10 μmol/L, 100% = 10 μmol/L 5-HT, −100% = 10 μmol/L SB206553, below 0% = inverse agonistic action

SMILES	Ki [1, 4]	Ki [2]	Test Ex. 3: 5-HT2C receptor agonistic action [3, 5]	Ki [1]	Test Ex. 3: 5-HT2C receptor agonistic action [3]
CNCc1cc(OCc2ccccc2)n(C(CF)C2CCCCC2)n1.Cl (centres unmarked) [Example 330, 1-[5-(Benzyloxy)-1-(1-cyclohexyl-2-fluoroethyl)-1H-pyrazol-3-yl]-N-methylmethanamine hydrochloride]	0.00096 µM	0.017 µM	−82%	–	–
CNCc1cc(OC(C)c2cccc(Cl)c2)n(CC2CCCCC2)n1.Cl (centres unmarked) [Example 350, 1-{5-[1-(3-Chlorophenyl)ethoxy]-1-(cyclohexylmethyl)-1H-pyrazol-3-yl}-N-methylmethanamine hydrochloride]	0.053 µM	0.011 µM	−92%	–	–
CNCc1cc(OCc2cccc(OC)c2)n(CC2CCCCC2)n1 [Compound 42]	0.0049 µM	–	−106%	–	–
CNCc1cc(OCc2cc(Cl)ccc2F)n(CCC2(O)CCCC2)n1.Cl [Example 435, 1-(2-{5-[(5-Chloro-2-fluorobenzyl)oxy]-3-[(methylamino)-methyl]-1H-pyrazol-1-yl}ethyl)cyclopentanol hydrochloride]	–	0.0044 µM	−125%	0.0006 µM	–
CNCc1cc(OCc2cc(F)c(F)cc2F)n(CCC2CC2)n1 [Example 426]	0.00099 µM	0.014 µM	−99%	–	–
CNCc1cc(OCc2cc(Cl)ccc2F)n(CCC(C)(C)OC)n1 [Example 275, 1-{5-[(5-chloro-2-fluorobenzyl)oxy]-1-(3-methoxy-3-methylbutyl)-1H-pyrazol-3-yl}-N-methylmethanamine]	–	–	–	–	−88%
Cl.NCc1cc(OCc2cc(F)ccc2F)n(CC2CCCC2)n1 [Example 347, 1-{1-(Cyclopentylmethyl)-5-[(2,5-difluorobenzyl)oxy]-1H-pyrazol-3-yl}methanamine hydrochloride]	–	0.031 µM	−114%	0.013 µM	–
CNC(C)c1cc(OCc2cc(F)ccc2F)n(CCC2CCCC2)n1 (single isomer, unassigned; (+)) [Example 477, (+)-1-{1-(2-cyclopentylethyl)-5-[(2,5-difluorobenzyl)-oxy]-1H-pyrazol-3-yl}-N-methylethanamine]	–	–	−94%	–	–
CNCc1cc(OCc2ccccc2)n(CCCc2ccccc2)n1 [Example 3, 1-[5-(Benzyloxy)-1-(3-phenylpropyl)-1H-pyrazol-3-yl]-N-methylmethanamine]	0.012 µM	0.0054 µM	–	–	−91%
CNCc1cc(OCc2ccccc2F)n(Cc2ccc(F)cc2)n1 [Example 218, 1-{1-(4-fluorobenzyl)-5-[(2-fluorobenzyl)oxy]-1H-pyrazol-3-yl}-N-methylmethanamine]	0.0097 µM	0.01 µM	−111%	–	–
CNCc1cc(OCc2cc(F)ccc2F)n(CCC(C)(C)C)n1 [Example 266, 1-{5-[(2,5-difluorobenzyl)oxy]-1-(3,3-dimethylbutyl)-1H-pyrazol-3-yl}-N-methylmethanamine]	–	–	−86%	–	–
CNCc1cc(OCc2cccc(Cl)c2)n(CC2CCc3ccccc3O2)n1.Cl (centres unmarked) [Example 341, 1-{5-[(3-Chlorobenzyl)oxy]-1-(3,4-dihydro-2H-chromen-2-ylmethyl)-1H-pyrazol-3-yl}-N-methylmethanamine hydrochloride]	0.023 µM	0.012 µM	−71%	–	–
CNCc1cc(OCc2cc(Cl)ccc2F)n(CCC(C)OC)n1 (centres unmarked) [Compound 405]	0.011 µM	0.023 µM	−90%	–	–
CNCc1cc(OCc2ccc(F)cc2F)n(CC2CCCC2)n1 [Example 144, 1-{1-(cyclopentylmethyl)-5-[(2,4-difluorobenzyl)oxy]-1H-pyrazol-3-yl}-N-methylmethanamine]	0.0083 µM	0.0022 µM	–	–	−127%
CNC(C)c1cc(OCc2cc(F)ccc2F)n(CCC2CCCC2)n1 (single isomer, unassigned; (-)) [Example 476, (−)-1-{1-(2-cyclopentylethyl)-5-[(2,5-difluorobenzyl)-oxy]-1H-pyrazol-3-yl}-N-methylethanamine]	–	–	−72%	–	–
CNCc1cc(OCc2cc(Cl)ccc2F)n(CC2(OC)CCCCC2)n1 [Compound 434]	0.0045 µM	–	−87%	–	–
CNCc1cc(OCc2cc(Cl)ccc2F)n(CC(C)(C)C)n1 [Example 259, 1-{5-[(5-chloro-2-fluorobenzyl)oxy]-1-(2,2-dimethylpropyl)-1H-pyrazol-3-yl}-N-methylmethanamine]	–	–	−119%	–	–
CNCc1cc(OCc2cc(Cl)ccc2F)n(CC2CCCCO2)n1 (single isomer, unassigned; (-)) [Example 474, (−)-1-{5-[(5-chloro-2-fluorobenzyl)oxy]-1-(tetrahydro-2H-pyran-2-ylmethyl)-1H-pyrazol-3-yl}-N-methylmethanamine]	–	–	−111%	–	–
CNC(C)c1cc(OCc2cc(F)ccc2F)n(CCC2CCCC2)n1 (centres unmarked) [Example 315, 1-{1-(2-cyclopentylethyl)-5-[(2,5-difluorobenzyl)oxy]-1H-pyrazol-3-yl}-N-methylethanamine]	–	–	−84%	–	–
